The results in this text go back to ChEMBL document CHEMBL1141195, “Carbonic anhydrase inhibitors. The mitochondrial isozyme VB as a new target for sulfonamide and sulfamate inhibitors” (J Med Chem, 2005).

Experiment [1] addresses Carbonic anhydrase 5A, mitochondrial (Homo sapiens, UniProt P35218).
Experiment [2] deals with Carbonic anhydrase 5B, mitochondrial (Homo sapiens, UniProt Q9Y2D0).

By Ki is commonly meant the equilibrium dissociation constant of an inhibitor or competing ligand from its target. Low values mean a stronger hold on the target, high ones a looser hold on the target.

Carbonic anhydrase 5B, mitochondrial, sequence (Q9Y2D0 whole entry): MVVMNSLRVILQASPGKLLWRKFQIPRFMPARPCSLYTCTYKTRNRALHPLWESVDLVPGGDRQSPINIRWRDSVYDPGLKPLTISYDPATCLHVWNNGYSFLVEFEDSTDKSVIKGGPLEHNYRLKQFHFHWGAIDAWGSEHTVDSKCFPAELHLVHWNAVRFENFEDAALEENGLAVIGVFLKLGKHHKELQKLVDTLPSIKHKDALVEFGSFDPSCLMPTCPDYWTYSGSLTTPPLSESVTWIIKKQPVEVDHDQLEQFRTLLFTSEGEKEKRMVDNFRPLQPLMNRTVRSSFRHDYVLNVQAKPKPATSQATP
Carbonic anhydrase 5A, mitochondrial, sequence (P35218 whole entry): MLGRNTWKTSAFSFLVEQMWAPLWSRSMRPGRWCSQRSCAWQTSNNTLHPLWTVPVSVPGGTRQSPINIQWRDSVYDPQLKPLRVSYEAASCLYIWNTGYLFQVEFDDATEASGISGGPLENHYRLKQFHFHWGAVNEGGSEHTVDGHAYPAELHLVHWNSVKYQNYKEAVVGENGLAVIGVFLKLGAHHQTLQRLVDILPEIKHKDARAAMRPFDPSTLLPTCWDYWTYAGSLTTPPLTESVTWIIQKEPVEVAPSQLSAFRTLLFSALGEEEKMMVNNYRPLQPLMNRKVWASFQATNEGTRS

Consider `NNc1ccccc1S(N)(=O)=O`, for which the inhibitory constant (Ki) stood at 9.6 µM in experiment [1] and 3.4 µM in experiment [2]. Turning to `Nc1nnc(S(N)(=O)=O)s1`, the inhibition constant (Ki) in experiment [1] turned out to be 2.3 µM; in experiment [2], 2.15 µM. Regarding `Nc1ccc(S(=O)(=O)NCc2ccc(S(N)(=O)=O)cc2)cc1`, the Ki in experiment [1] turned out to be 0.176 µM; in experiment [2] it was 0.024 µM. In turn, `Nc1cc(Cl)c(S(N)(=O)=O)cc1S(N)(=O)=O` came in with a Ki in experiment [2] of 6.21 µM.

As for `Nc1ccc(S(N)(=O)=O)cc1I`, the inhibition constant Ki in experiment [1] came to 9.4 µM; in experiment [2], 3.3 µM. As for `Nc1ccc(S(=O)(=O)Nc2nnc(S(N)(=O)=O)s2)cc1`, the Ki was found to be 0.034 µM in experiment [1] and 0.03 µM in experiment [2].

On to `NS(=O)(=O)c1nnc(-c2ccccc2Cl)s1`, for which the Ki in experiment [1] was found to be 0.043 µM; in experiment [2], 0.03 µM. Take `Nc1nccc(Nc2ccc(S(N)(=O)=O)cc2)n1`: the Ki in experiment [1] amounted to 17 µM; in experiment [2] it was 10.2 µM. Consider `NS(=O)(=O)c1nc2ccc(O)cc2s1`, for which the Ki in experiment [1] was 0.054 µM; in experiment [2] it was 0.041 µM.

For the compound `Nc1ccccc1S(N)(=O)=O`, the figures for the Ki in experiment [1] and in experiment [2] were 15.3 µM and 9.56 µM, respectively.

With `Nc1ccc(S(N)(=O)=O)cc1Br`, the Ki stood at 7.6 µM in experiment [1] and 3.54 µM in experiment [2]. Regarding `Cn1nc(S(N)(=O)=O)sc1=N`, the Ki worked out at 2.16 µM in experiment [1] and 2.08 µM in experiment [2]. Turning to `NS(=O)(=O)c1ccc(CCO)cc1`, the Ki in experiment [1] was 8.7 µM; in experiment [2], 7 µM. The corresponding values for `Nc1ccc(S(N)(=O)=O)cc1F` are 9.3 µM and 4.22 µM. On to `NS(=O)(=O)c1ccc(CO)cc1`, for which the Ki in experiment [1] turned out to be 9.3 µM; in experiment [2] it was 7.45 µM. Turning to `NCCc1ccc(S(N)(=O)=O)cc1`, the Ki in experiment [1] was 42.4 µM; in experiment [2], 8.95 µM.

For the compound `Nc1ccc(S(N)(=O)=O)cc1Cl`, the Ki in experiment [1] stood at 7.4 µM; in experiment [2] it was 4.3 µM. As for `Nc1ccc(S(=O)(=O)NCCc2ccc(S(N)(=O)=O)cc2)cc1`, the Ki was 0.121 µM in experiment [1] and 0.042 µM in experiment [2]. With `NNc1ccc(S(N)(=O)=O)cc1`, the Ki turned out to be 7.7 µM in experiment [1] and 3.5 µM in experiment [2]. As for `NS(=O)(=O)c1ccc(S(=O)(=O)Nc2cccc3c(Cl)c[nH]c23)cc1`, the inhibitory constant (Ki) stood at 0.079 µM in experiment [1] and 0.023 µM in experiment [2]. Regarding `Nc1cc(C(F)(F)F)c(S(N)(=O)=O)cc1S(N)(=O)=O` [2,4-DISULFAMYLTRIFLUOROMETHYLANILINE], in experiment [2], the affinity corresponds to a Ki of 6.56 µM. In the case of `CCN[C@H]1CN(CCCOC)S(=O)(=O)c2sc(S(N)(=O)=O)cc21` [BRINZOLAMIDE], the results for the Ki in experiment [1] and in experiment [2] were 0.05 µM and 0.03 µM, respectively. On to `NS(=O)(=O)c1ccc(C(=O)O)cc1` [CARZENIDE], for which the inhibitory constant (Ki) was 2.65 µM in experiment [1] and 1.56 µM in experiment [2].

`NCc1ccc(S(N)(=O)=O)cc1` [MAFENIDE]: the Ki in experiment [1] was determined as 27.6 µM; in experiment [2] it was 12.3 µM. `Cc1ccc(S(N)(=O)=O)cc1` [P-TOLUENESULFONAMIDE]: the Ki in experiment [1] stood at 4.7 µM; in experiment [2], 2.43 µM. Take `Nc1ccc(S(N)(=O)=O)cc1` [SULFANILAMIDE]: in experiment [1], the Ki was determined as 32 µM. As to `CC1(C)O[C@@H]2[C@@H](CO[C@@]3(COS(N)(=O)=O)OC(C)(C)O[C@@H]23)O1` [TOPIRAMATE], the Ki was determined as 0.063 µM in experiment [1] and 0.03 µM in experiment [2].
